In patent publication US11780834B2, “Solid forms of 3-((1R,3R)-1-(2,6-difluoro-4-((1-(3-fluoropropyl)azetidin-3-yl)amino)phenyl)-3-methyl-1,3,4,9-tetrahydro-2H-pyrido[3,4-b]indol-2-yl)-2,2-difluoropropan-1-ol and processes for preparing fused tricyclic compounds comprising a substituted phenyl or pyridinyl moiety, including methods …” (Hoffmann-La Roche Inc., priority 2018, dated 2023):
Where “and” joins values, the source holds several entries; their conditions need not be identical. Identical values can stand only once. Counter-ions that a name gives are not always drawn. Like-named read-outs stand apart in the source and are kept apart here.

Assays:
[1] = Approximate solubility of Compound B Form B material in 20 solvents at RT; assay type: physicochemical
Description: Polymorph Screening of L-Tartrate. The solubility of Compound B Form B material was estimated in 20 solvents at RT. (Table 22). Approximately 2 mg solids were added into a 3-mL glass vial. Solvents in Table 6-7 were then added into the vials stepwise until the solids were dissolved or a total volume of 1 mL was reached. Results of Table 22 were used to guide the solvent selection in polymorph screening. Polymorph screening experiments were performed using different solution crystallization or solid phase transition methods.

[2] = Stress stability of solid forms at elevated temperature and humidity (XRPD, impurities); assay type: physicochemical; details: 40° C./75% RH, one month, tartrate
Description: Preliminary stress stability analysis of Compound B Form B. The XRPD patterns of Compound A salts (fumarate and tartrate) exposed to 40° C./75% RH for one month under open conditions.
XRPD of one-month stability sample.

[3] = test system: LBD of both wild-type and mutant ER; assay: Competitive binding to ER ligand-binding domain
[4] = target: ER (Homo sapiens, UniProt P03372); assay: ER degradation and ER pathway suppression; assay type: cell-based; details: compared to GDC-0927 and GDC-0810
ER, sequence (P03372 whole entry): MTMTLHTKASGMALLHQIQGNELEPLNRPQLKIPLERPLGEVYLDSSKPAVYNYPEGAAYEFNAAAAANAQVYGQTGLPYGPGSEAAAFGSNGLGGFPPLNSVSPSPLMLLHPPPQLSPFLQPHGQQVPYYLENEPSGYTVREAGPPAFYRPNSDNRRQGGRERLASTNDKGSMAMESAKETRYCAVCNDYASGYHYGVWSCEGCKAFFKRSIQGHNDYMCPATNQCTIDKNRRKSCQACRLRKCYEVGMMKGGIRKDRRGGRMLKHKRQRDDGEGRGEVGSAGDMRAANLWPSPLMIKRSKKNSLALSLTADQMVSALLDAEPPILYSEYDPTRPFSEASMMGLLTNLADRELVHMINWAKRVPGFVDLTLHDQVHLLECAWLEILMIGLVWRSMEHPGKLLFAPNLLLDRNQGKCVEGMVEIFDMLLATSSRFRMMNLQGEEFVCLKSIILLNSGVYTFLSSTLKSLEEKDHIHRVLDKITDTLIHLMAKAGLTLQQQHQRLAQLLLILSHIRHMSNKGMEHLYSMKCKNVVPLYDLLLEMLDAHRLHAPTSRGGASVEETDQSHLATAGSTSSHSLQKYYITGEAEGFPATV

[5] = test system: ER-positive breast cancer cell lines; assay: Proliferation of ER-positive breast cancer cell lines in vitro; assay type: cell-based; details: multiple ER-positive breast cancer cell lines, including cells engineered to express clinically relevant ER mutations
[6] = Oral bioavailability in monkeys; details: monkey, in vivo
[7] = target: T1, CYP2B6 (Homo sapiens, UniProt P20813); assay: CYP2B6 inhibition in human liver microsomes; assay type: in vitro ADME
T1 construct: from tissue; host or cells: human liver microsomes
T1 sequence (P20813 1-491): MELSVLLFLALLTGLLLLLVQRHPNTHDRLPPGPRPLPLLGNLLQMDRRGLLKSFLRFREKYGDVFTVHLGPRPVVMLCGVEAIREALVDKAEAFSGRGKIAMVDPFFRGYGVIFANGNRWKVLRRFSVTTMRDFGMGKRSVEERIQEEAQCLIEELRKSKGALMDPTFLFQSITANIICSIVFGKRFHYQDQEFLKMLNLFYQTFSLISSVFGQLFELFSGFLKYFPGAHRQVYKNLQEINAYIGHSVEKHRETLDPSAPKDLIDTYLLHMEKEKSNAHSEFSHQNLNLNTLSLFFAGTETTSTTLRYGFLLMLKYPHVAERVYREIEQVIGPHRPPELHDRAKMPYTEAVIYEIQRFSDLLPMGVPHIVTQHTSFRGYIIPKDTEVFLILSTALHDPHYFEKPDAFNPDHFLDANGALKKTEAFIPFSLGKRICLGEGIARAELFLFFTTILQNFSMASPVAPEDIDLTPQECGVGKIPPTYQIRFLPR

[8] = target: T2, CYP2C8 (Homo sapiens, UniProt P10632); assay: CYP2C8 inhibition in human liver microsomes; assay type: in vitro ADME
T2 construct: from tissue; host or cells: human liver microsomes
T2 sequence (P10632 1-490): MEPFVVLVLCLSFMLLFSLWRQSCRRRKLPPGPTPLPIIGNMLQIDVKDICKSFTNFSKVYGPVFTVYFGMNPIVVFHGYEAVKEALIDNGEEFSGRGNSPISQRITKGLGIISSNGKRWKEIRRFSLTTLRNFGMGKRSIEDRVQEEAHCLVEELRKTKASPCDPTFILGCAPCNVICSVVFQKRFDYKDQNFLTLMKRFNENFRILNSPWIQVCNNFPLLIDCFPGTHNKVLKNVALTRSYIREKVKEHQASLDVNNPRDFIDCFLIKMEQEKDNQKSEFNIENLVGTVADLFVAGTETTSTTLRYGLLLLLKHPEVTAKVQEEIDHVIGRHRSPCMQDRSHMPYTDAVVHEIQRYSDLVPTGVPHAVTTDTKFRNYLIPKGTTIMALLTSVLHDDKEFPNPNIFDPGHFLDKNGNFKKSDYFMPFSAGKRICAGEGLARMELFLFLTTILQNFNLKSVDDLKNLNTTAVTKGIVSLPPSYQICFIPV

[9] = test system: CYP; assay: In vitro CYP inhibition (human liver microsomes) and induction (human hepatocytes) studies; assay type: in vitro ADME; details: induction in human hepatocytes
[10] = target: CYP3A4 (Homo sapiens, UniProt P08684); details: read-out: CYP3A4 inhibition IC50, direct inhibition, human liver microsomes
CYP3A4, sequence (P08684 whole entry): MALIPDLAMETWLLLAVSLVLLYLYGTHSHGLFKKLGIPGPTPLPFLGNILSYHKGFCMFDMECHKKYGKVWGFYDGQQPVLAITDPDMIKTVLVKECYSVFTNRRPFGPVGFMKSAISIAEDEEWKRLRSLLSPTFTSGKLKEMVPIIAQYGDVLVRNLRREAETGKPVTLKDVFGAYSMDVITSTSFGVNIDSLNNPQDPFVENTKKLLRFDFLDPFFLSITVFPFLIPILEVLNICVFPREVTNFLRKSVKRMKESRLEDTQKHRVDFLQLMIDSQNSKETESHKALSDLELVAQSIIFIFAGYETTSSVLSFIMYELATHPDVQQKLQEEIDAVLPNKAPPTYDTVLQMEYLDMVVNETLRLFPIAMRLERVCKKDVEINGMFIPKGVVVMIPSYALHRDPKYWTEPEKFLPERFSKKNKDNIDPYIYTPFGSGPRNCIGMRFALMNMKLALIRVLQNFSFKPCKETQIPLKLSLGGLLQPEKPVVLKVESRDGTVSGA

[11] = female, rat, in vivo, po, 28 days
[12] = monkey, in vivo
[13] = test system: locally advanced or metastatic ER-positive breast cancer; details: for Response / Response, per cent in parentheses: one line per patient
Description: (§1) Patients were enrolled in a dose-escalation stage with enrollment in an expansion stage to follow. During the single-agent dose escalation, cohorts were evaluated at escalating dose levels to determine the MTD or maximum administered dose (MAD).
Patients were monitored for adverse events during a dose-limiting toxicity (DLT) assessment window, defined as Days −7 to 28 of Cycle 1 (single-agent cohorts). For DLT evaluation, toxicity was graded according to the National Cancer Institute Common Terminology Criteria for Adverse Events, Version 4.0 (NCI CTCAE v4.0).
Patients enrolled in the single-agent Compound B dose-escalation stage, which consists of a screening period, a PK lead-in period, a treatment period, and a safety follow-up period. Continuous once daily dosing was commenced during the treatment period starting on Cycle 1 Day 1. […] The dose will be increased by up to 200% of the preceding dose level for each successive cohort, until a safety finding of concern (i.e., either a DLT, any patient with Grade ≥2 clinically significant toxicity or overall adverse event profile inappropriate for 200% increments) is observed. Once safety findings of concern are observed, dose escalation will not exceed 100% increments.

[14] = clinical; details: human, in vivo, po
Description: as §1
Continuous once daily dosing was commenced during the treatment period starting on Cycle 1 Day 1.

[15] = Four-week GLP repeat-dose oral toxicity study in female rats
[16] = Four-week GLP repeat-dose oral toxicity study in female monkeys
[17] = female, rat, plasma, po, 100 mg/kg
[18] = female, monkey, plasma, po, 60 mg/kg/day

Compound: C[C@@H]1Cc2c([nH]c3ccccc23)[C@@H](c2c(F)cc(NC3CN(CCCF)C3)cc2F)N1CC(F)(F)CO [Compound B, 3-((1R,3R)-1-(2,6-difluoro-4-((1-(3-fluoropropyl)azetidin-3-yl)amino)phenyl)-3-methyl-1,3,4,9-tetrahydro-2H-pyrido[3,4-b]indol-2-yl)-2,2-difluoropropan-1-ol tartrate]
- solubility ([1]; organic solvent or mixture, thermodynamic from solid, 1,4-Dioxane): < 2200 µg/mL
- solubility ([1]; organic solvent or mixture, thermodynamic from solid, 2-MeTHF): < 1900 µg/mL
- solubility ([1]; organic solvent or mixture, thermodynamic from solid, ACN): < 2100 µg/mL
- solubility ([1]; organic solvent or mixture, thermodynamic from solid, Acetone): 2100 to 7000 µg/mL
- solubility ([1]; organic solvent or mixture, thermodynamic from solid, Anisole): < 1900 µg/mL
- solubility ([1]; organic solvent or mixture, thermodynamic from solid, CPME): < 2100 µg/mL
- solubility ([1]; organic solvent or mixture, thermodynamic from solid, DCM): < 2000 µg/mL
- solubility ([1]; organic solvent or mixture, thermodynamic from solid, DMSO): > 38000 µg/mL
- solubility ([1]; organic solvent or mixture, thermodynamic from solid, EtOAc): < 1900 µg/mL
- solubility ([1]; organic solvent or mixture, thermodynamic from solid, EtOH): < 1900 µg/mL
- solubility ([1]; organic solvent or mixture, thermodynamic from solid, IPA): < 2100 µg/mL
- solubility ([1]; organic solvent or mixture, thermodynamic from solid, IPAc): < 1900 µg/mL
- solubility ([1]; organic solvent or mixture, thermodynamic from solid, MEK): < 2000 µg/mL
- solubility ([1]; organic solvent or mixture, thermodynamic from solid, MIBK): < 1900 µg/mL
- solubility ([1]; organic solvent or mixture, thermodynamic from solid, MTBE): < 2100 µg/mL
- solubility ([1]; organic solvent or mixture, thermodynamic from solid, MeOH): 6700 to 20000 µg/mL
- solubility ([1]; organic solvent or mixture, thermodynamic from solid, THF): 2100 to 7000 µg/mL
- solubility ([1]; organic solvent or mixture, thermodynamic from solid, Toluene): < 1900 µg/mL
- solubility ([1]; organic solvent or mixture, thermodynamic from solid, n-Heptane): < 2000 µg/mL
- solubility ([1]; water, thermodynamic from solid, H2O): < 1900 µg/mL
- Solid form (XRPD) after stress stability ([2]; open): did not change
- Impurities after stress stability ([2]; listed as tartrate salt): lacked the impurities
- Potency of competitive binding to ER LBD [3]: nanomolar potency
- ER degradation & ER pathway suppression [4]: superior
- Inhibition of proliferation [5]: potently inhibits
- bioavailability [6]: 17%
- IC50 [7]: 13 µM
- IC50 [8]: 21 µM
- Potential for drug-drug interactions [9]: low-to-moderate
- IC50 ([10]; midazolam 1′-hydroxylation): 6.5 µM
- IC50 ([10]; testosterone 6β-hydroxylation): 26 µM
- Severely toxic dose for 10% of animals (STD10) [11]: 100 mg/kg
- Highest non-severely toxic dose ([12]; female, po, 28 days): 60 mg/kg/day
- Tolerability at high dose ([12]; 200 mg/kg): not tolerated
- Response of individual patient (CT, FES-PET) ([13]; 10 mg, after 3 cycles): showed response
- FES-PET response ([13]; all treated patients with FES-PET, qualitative): near-complete (NC) or complete responses (CR)
- Response ([13]; cohort 1 (10 mg), tartrate): uPR
- Response, per cent in parentheses ([13]; cohort 1 (10 mg), tartrate): −40% and −27%
- Response ([13]; cohort 1-BF (10 mg)): cPD
- Response, per cent in parentheses ([13]; cohort 2 (30 mg)): −9%
- DLTs, SAEs, AESIs, clinically significant laboratory abnormalities ([13]; in vivo): no observed
- half-life [14]: ~40 h
- AUC(0-t) [15, 17]: 143000 ng·h/mL
- Cmax [15, 17]: 6560 ng/mL
- Exposure multiple (AUC) over anticipated human Phase I starting dose at which PLD was observed ([15]; rats): at least 44 fold
- Exposure factor ([15]; rats, 10 mg/kg): 18 fold
- PLD finding ([15]; rats, 10 mg/kg): not noted
- Increase in systemic exposure with dose ([15]; rats, 28-day oral): dose proportional
- MTD at 4 weeks ([16]; female, monkey, in vivo, po): 60 mg/kg
- AUC(0-t) [16, 18]: 16200 ng·h/mL
- Cmax [16, 18]: 841 ng/mL
- Exposure multiple (AUC) over anticipated human Phase I starting dose at which PLD was observed ([16]; monkeys): ≥ 6 fold
- Exposure factor ([16]; monkeys, 20 mg/kg): 6 fold
- PLD finding ([16]; monkeys, 20 mg/kg): limited to minimal changes in the lung
- Increase in systemic exposure with dose ([16]; monkeys, 28-day oral): dose proportional
